Experimental data from patent US5225411A, “Disubstituted polymethyleneimines” (priority 1990, dated 1993).

What was measured:
[1] = system: murine leukaemia P 388/ADR 10; assay: Evaluation of the increase in cytotoxicity of adriamycin on the line P 388/ADR-10 in vitro (reversion factor); format: cell-based; details: adriamycin, P 388/ADR-10, 48 h, TOX = toxic
Experimental: In this study, the cytotoxicity of adriamycin was measured in the absence and in the presence of the reversing compound.
The compounds tested for their capacity to reverse MDR are added at the same time as the cytotoxic agent. The cells are then incubated for 48 hours.

[2] = system: Chinese Hamster Pulmonary Line DC-3F/AD; assay: Increase in the cytotoxicity of actinomycin D on the Chinese hamster pulmonary line DC-3F/AD; format: cell-based; details: 4 days;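 further: DC-3F/AD is an extremely resistant cell line whose resistance factor exceeds 10,000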
Excerpt: The cytotoxic agent used was actinomycin D.
Line DC-3F/AD is an extremely resistant line. Its resistance factor is higher than 10,000.

[3] = system: line DC-3F/AD; assay: Flow cytometry, increase in fluorescence of ADR on the line DC-3F/AD; format: cell-based, Chinese Hamster; details: ADR 50 μM, 5 h
Experimental: (§1) By measuring that fluorescence it is possible to obtain a relative measurement of the intracellular concentration of ADR.
(§2) […] After 5 hours' incubation, the intracellular uptake of adriamycin was evaluated by FCM.
(§3) The analysis of each of the samples was carried out on a total of 10,000 cells at a speed of 1000 cells/sec.
(§4) The results were presented in the form of linear histograms of the intracellular ADR fluorescence.
(§5) Expression of the Results
(§6) For each of the histograms, the channel mean fluorescence was determined by the apparatus information system. For all experiments:
(§7) A negative control (cells without ADR) fixed the autofluorescence threshold.
(§8) A positive control (cells with ADR) determined the MEAN value=MN1.
(§9) The "test" tubes (cells with ADR and with compound) were used to determine, for each of the compounds and at each of the concentrations, the MEAN values=MN2.
(§10) The results are expressed in the form of variations from the mean fluorescence obtained for each of the "test" tubes (MN2) in relation to the mean fluorescence obtained with the […] (MNl) : VAR-MEAN=MN2 -MN1. The parameter expressed is thus the increase in the fluorescence of adriamycin in the presence of the tested compounds.

[4] = system: line P 388/ADR 10; assay: Flow cytometry, increase in fluorescence of ADR on the line P 388/ADR 10; format: cell-based, murine; details: ADR 50 μM, 5 h
Experimental: as §1, §2, §3, §4, §5, §6, §7, §8, §9, §10

SMILES | Reversion Factor (RF) ([1]; compound 2.5 μM) | Reversion Factor (RF) ([1]; compound 5 μM) | Reversion Factor (RF) ([1]; compound 10 μM) | Reversion Factor (RF) ([2]; compound 5 μM) | Reversion Factor (RF) ([2]; compound 10 μM) | Reversion Factor (RF) ([2]; compound 20 μM) | Increase in fluorescence of ADR (VAR-MEAN = MN2 - MN1) ([3]; compound 2 μM) | Increase in fluorescence of ADR (VAR-MEAN = MN2 - MN1) ([3]; compound 5 μM) | Increase in fluorescence of ADR (VAR-MEAN = MN2 - MN1) ([3]; compound 10 μM) | Increase in fluorescence of ADR (VAR-MEAN = MN2 - MN1) ([3]; compound 20 μM) | Increase in fluorescence of ADR (VAR-MEAN = MN2 - MN1) ([4]; compound 2 μM) | Increase in fluorescence of ADR (VAR-MEAN = MN2 - MN1) ([4]; compound 5 μM) | Increase in fluorescence of ADR (VAR-MEAN = MN2 - MN1) ([4]; compound 10 μM) | Increase in fluorescence of ADR (VAR-MEAN = MN2 - MN1) ([4]; compound 20 μM) | Reversion Factor (RF) ([2]; compound 2.5 μM)
CCCCc1oc2ccccc2c1C(=O)c1cc(I)c(OCCN(CC)CC)c(I)c1 [AMIODARONE, reference compound] | 37.7 | 104.7 | TOX | 298 | 388 | TOX | 8.80 | 16.65 | 21.55 | 26.35 | 33.40 | 65.25 | 76.33 | 95.85 | 
C=CCNc1nc(NCC=C)nc(N2CCC(SCCC(c3ccccc3)c3ccccc3)CC2)n1 [Example 2, 1-[4,6-bis(allylamino)-2-s-triazinyl]-4-(3,3-diphenylpropylthio)piperidine] | 15.4 | 65.1 | 86.4 | 17 | 171 |  | 0.2 | 10.4 | 25.1 | 35.0 |  |  |  |  | 
C=CCNc1nc(NCC=C)nc(NC2CCN(CC(c3ccccc3)c3ccccc3)CC2)n1 [Example 3, 4-[4,6-bis(allylamino)-2-s-triazinyl]amino-1-(2,2diphenylethyl)piperidine] | 39 | 70 | 134.8 | 104 | 240 |  | 8.0 | 19.9 | 21.6 | 19.3 | 29.9 | 46.2 | 66.0 | 73.1 | 38
C=CCNc1nc(NCC=C)nc(N2CCC(N(C)CC(c3ccccc3)c3ccccc3)CC2)n1 [Example 4, 1-[4,6-bis(allylamino)-2-s-triazinyl)-4-[N-(2,2-di-phenylethyl)-N-methylamino]piperidine] | 34.7 | 32.3 | 171.1 | 218 | 1256 |  | 12.3 | 24.1 | 41.9 | 49.0 |  |  |  |  | 
C=CCNc1nc(NCC=C)nc(N2CCC(NCC(c3ccccc3)c3ccccc3)CC2)n1 [Example 5, 1-[4,6-bis(allylamino)-2-s-triazinyl]-4-(2,2-diphenylethylamino)piperidine] | 100 | 189 | 277.4 | 658 | 1504 | TOX | 15.5 | 31.3 | 34.65 | 37.9 | 45.25 | 60.7 | 79.47 | 76.25 | 
C=CCNc1nc(NCC=C)nc(N2CCC(NCCC(c3ccccc3)c3ccccc3)CC2)n1 [Example 6, 1-[4,6-bis(allylamino)-2-s-triazinyl]-4-(3,3-diphenylpropylamino)-piperidine] | 54.4 | TOX | TOX | 220 | TOX | TOX | 3.9 | 21.5 | 29.75 | TOX | 32.9 | 60.1 | 55.8 | TOX | < 16.5
C=CCNc1nc(NCCC)nc(NC2CCN(CC(c3ccccc3)c3ccccc3)CC2)n1 [Example 11, 4-(4-allylamino-6-propylamino-2-s-triazinylamino)-1-(2,2-diphenylethyl)piperidine] | 87 | 65.2 | TOX | 281 | 926 |  | 12.6 | 18.9 | 29.9 | 40.5 |  |  |  |  | 
C=CCNc1nc(NCC=C)nc(N2CCC(NCCC(c3ccc(OC)c(OC)c3)c3ccc(OC)c(OC)c3)CC2)n1 [Example 12, 1-[4,6-bis(allylamino)-2-s-triazinyl]-4-[3,3-bis(3,4-dimethoxyphenyl)propylamino]piperidine] | 1.4 | 8 | TOX | < 16.5 | < 16.5 |  | 6.1 | 3.8 | 5.5 | 9.6 |  |  |  |  | 
C=C[C@H]1C[N@@]2CC[C@H]1C[C@@H]2[C@@H](O)c1ccnc2ccc(OC)cc12 [QUINIDINE] |  | 6 | 17.4 | < 12 | < 12 | < 12 |  |  |  |  | 6.65 | 12.80 | 22.00 | 29.90 | 
C=C[C@H]1C[N@@]2CC[C@H]1C[C@H]2[C@H](O)c1ccnc2ccc(OC)cc12 [QUININE] |  |  | 14.5 | < 10 | < 10 | < 11 |  |  |  |  | 4.85 | 5.40 | 12.00 | 18.90 | 
